Reference: patent publication US12139499B2, “Heteroaryl compounds for treating Huntington's disease” (PTC THERAPEUTICS, INC., priority 2018, dated 2024)

Test system: Endogenous Huntingtin Protein
Test: Endogenous Huntingtin Protein Assay (ELISA-based MSD electrochemiluminescence)
Assay type: cell-based
Details: Table 1
Summary of the method: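 Huntingtin was captured overnight at 4 °C on plates coated with 1 μg/mL MW1 (polyQ-expanded) or MAB2166 antibody and BSA-blocked. Detection used a rabbit monoclonal and then a SULFO-TAG goat anti-rabbit antibody (0.25 μg/mL, 1 h each, room temperature). Signal was read by electrochemiluminescence.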

Structure (SMILES)	IC50 [nM]
Cn1cc2cc(-c3ccc4nc(NC5CCNCC5)sc4c3)ccc2n1 [Compound 35, 6-(2-methyl-2H-indazol-5-yl)-N-(piperidin-4-yl)-1,3-benzothiazol-2-amine]	100 to 500
Cc1cn2cc(-c3cc4sc(N(C)C5CC6CCC(C5)N6)nc4cn3)cc(F)c2n1 (stereo not drawn) [Compound 204, N-[(3-exo)-8-azabicyclo[3.2.1]oct-3-yl]-6-(8-fluoro-2-methylimidazo[1,2-a]pyridin-6-yl)-N-methyl[1,3]thiazolo[4,5-c]pyridin-2-amine]	≤ 100
Cc1cn2cc(-c3cnc4nc(N(C)C5CC(C)(C)NC(C)(C)C5)sc4n3)cc(C#N)c2n1 [Compound 163, 2-methyl-6-{2-[methyl(2,2,6,6-tetramethylpiperidin-4-yl)amino][1,3]thiazolo[4,5-b]pyrazin-6-yl}imidazo[1,2-a]pyridine-8-carbonitrile]	≤ 100
CN(c1nc2ccc(-c3ccc4[nH]ncc4c3)cc2s1)C1CC(C)(C)NC(C)(C)C1 [Compound 34, 6-(1H-indazol-5-yl)-N-methyl-N-(2,2,6,6-tetramethylpiperidin-4-yl)-1,3-benzothiazol-2-amine]	100 to 500
CN(c1nc2cnc(-c3cc(C#N)c4nn(C)cc4c3)nc2s1)C1CC2CCC(C1)N2 (stereo not drawn) [Compound 208, 5-{2-[(3-exo)-8-azabicyclo[3.2.1]oct-3-yl(methyl)amino][1,3]thiazolo[5,4-d]pyrimidin-5-yl}-2-methyl-2H-indazole-7-carbonitrile]	≤ 100
COc1cc(-c2ncc3nc(N(C)C4CC(C)(C)NC(C)(C)C4)sc3n2)cc2cn(C)nc12 [Compound 197, 5-(7-methoxy-2-methyl-2H-indazol-5-yl)-N-methyl-N-(2,2,6,6-tetramethylpiperidin-4-yl)[1,3]thiazolo[5,4-d]pyrimidin-2-amine]	100 to 500
CN1CC[C@@H]2[C@@H](CCN2c2nc3nnc(-c4ccc(-c5cn[nH]c5)cc4O)cc3s2)C1 [Compound 347, 2-{6-[(3aS,7aR)-5-methyloctahydro-1H-pyrrolo[3,2-c]pyridin-1-yl][1,3]thiazolo[4,5-c]pyridazin-3-yl}-5-(1H-pyrazol-4-yl)phenol]	1000 to 3000
Cc1cn2cc(-c3ncc4nc(N(C)C5CC(C)(C)NC(C)(C)C5)sc4n3)cc(F)c2n1 [Compound 171, 5-(8-fluoro-2-methylimidazo[1,2-a]pyridin-6-yl)-N-methyl-N-(2,2,6,6-tetramethylpiperidin-4-yl)[1,3]thiazolo[5,4-d]pyrimidin-2-amine]	≤ 100
Cc1cn2cc(-c3ccc4nc(N(C)C5CC6CCCC(C5)N6)sc4n3)cc(C#N)c2n1 (stereo not drawn) [Compound 279, 6-{2-[(3-exo)-9-azabicyclo[3.3.1]non-3-yl(methyl)amino][1,3]thiazolo[5,4-b]pyridin-5-yl}-2-methylimidazo[1,2-a]pyridine-8-carbonitrile]	≤ 100
CN(c1nc2nnc(-c3ccc(-c4cn[nH]c4)cc3O)cc2s1)C1CC2(CNC2)C1 [Compound 356, 2-{6-[(2-azaspiro[3.3]heptan-6-yl)(methyl)amino][1,3]thiazolo[4,5-c]pyridazin-3-yl}-5-(1H-pyrazol-4-yl)phenol]	100 to 500
Cc1cn2cc(-c3ccc4nc(N(C)C5CC(C)(C)NC(C)(C)C5)sc4c3)ccc2n1 [Compound 63, N-methyl-6-(2-methylimidazo[1,2-a]pyridin-6-yl)-N-(2,2,6,6-tetramethylpiperidin-4-yl)-1,3-benzothiazol-2-amine]	100 to 500
Fc1cc(-c2ccc3[nH]ncc3n2)cc2sc(C3CCNCC3)nc12 [Compound 78, 5-[4-fluoro-2-(piperidin-4-yl)-1,3-benzothiazol-6-yl]-1H-pyrazolo[4,3-b]pyridine]	500 to 1000
Oc1cc(-c2cn[nH]c2)ccc1-c1cc2sc(N3CCC34CCNCC4)nc2nn1 [Compound 354, 2-[6-(1,7-diazaspiro[3.5]nonan-1-yl)[1,3]thiazolo[4,5-c]pyridazin-3-yl]-5-(1H-pyrazol-4-yl)phenol]	≤ 100
Cc1cc(-c2cc3sc(N(C)C4CCNCC4)nc3cn2)cc2cn(C)nc12 [Compound 30, 6-(2,7-dimethyl-2H-indazol-5-yl)-N-methyl-N-(piperidin-4-yl)[1,3]thiazolo[4,5-c]pyridin-2-amine]	100 to 500
Cc1cn2cc(-c3ncc4nc(N(C)C5CC(C)(C)NC(C)(C)C5)sc4n3)cc(C)c2n1 [Compound 183, 5-(2,8-dimethylimidazo[1,2-a]pyridin-6-yl)-N-methyl-N-(2,2,6,6-tetramethylpiperidin-4-yl)[1,3]thiazolo[5,4-d]pyrimidin-2-amine]	≤ 100
Cc1cn2cc(-c3cc4sc(N(C)C5CCN(C)C(C)C5)nc4cn3)cc(C#N)c2n1 (stereo not drawn) [Compound 379, 6-{2-[(1,2-dimethylpiperidin-4-yl)(methyl)amino][1,3]thiazolo[4,5-c]pyridin-6-yl}-2-methylimidazo[1,2-a]pyridine-8-carbonitrile]	≤ 100
CN(c1nc2cnc(-c3cc(C#N)c4nn(C)cc4c3)nc2s1)C1CC(C)(C)NC(C)(C)C1 [Compound 123, 2-methyl-5-{2-[methyl(2,2,6,6-tetramethylpiperidin-4-yl)amino][1,3]thiazolo[5,4-d]pyrimidin-5-yl}-2H-indazole-7-carbonitrile]	≤ 100

Structure (SMILES)	IC50 [nM]
Cc1cn2nc(-c3cc(F)c4nc(C5CCNCC5)sc4c3)cc(O)c2n1 [Compound 189, 6-[4-fluoro-2-(piperidin-4-yl)-1,3-benzothiazol-6-yl]-2-methylimidazo[1,2-b]pyridazin-8-ol]	100 to 500
CC1CC(N(C)c2nc3ccc(-c4ccc5nn(C)cc5c4)cc3s2)CC(C)N1 (stereo not drawn) [Compound 176, N-(2,6-dimethylpiperidin-4-yl)-N-methyl-6-(2-methyl-2H-indazol-5-yl)-1,3-benzothiazol-2-amine]	≤ 100
CN(c1nc2ccc(-c3cc(F)c4nn(C)cc4c3)nc2s1)C1CC(C)(C)NC(C)(C)C1 [Compound 128, 5-(7-fluoro-2-methyl-2H-indazol-5-yl)-N-methyl-N-(2,2,6,6-tetramethylpiperidin-4-yl)[1,3]thiazolo[5,4-b]pyridin-2-amine]	100 to 500
CN(c1nc2nnc(-c3ccc(-c4cn[nH]c4)cc3O)cc2s1)C1CCN(CCO)CC1 [Compound 399, 2-(6-{[1-(2-hydroxyethyl)piperidin-4-yl](methyl)amino}[1,3]thiazolo[4,5-c]pyridazin-3-yl)-5-(1H-pyrazol-4-yl)phenol]	≤ 100
CN(c1nc2ncc(-c3ccc(-c4cn[nH]c4)c(F)c3F)nc2s1)C1CC(C)(C)NC(C)(C)C1 [Compound 161, 6-[2,3-difluoro-4-(1H-pyrazol-4-yl)phenyl]-N-methyl-N-(2,2,6,6-tetramethylpiperidin-4-yl)[1,3]thiazolo[4,5-b]pyrazin-2-amine]	1000 to 3000
CC1C=C(c2nc3ccc(-c4ccc5nn(C)cc5c4)cc3s2)CCN1 (stereo not drawn) [Compound 67, 6-(2-methyl-2H-indazol-5-yl)-2-(6-methyl-1,2,3,6-tetrahydropyridin-4-yl)-1,3-benzothiazole]	1000 to 3000
Cc1cn2cc(-c3ccc4nc(N(C)C5CC6CCC(C5)N6)sc4n3)cc(F)c2n1 (stereo not drawn) [Compound 277, N-[(3-exo)-8-azabicyclo[3.2.1]oct-3-yl]-5-(8-fluoro-2-methylimidazo[1,2-a]pyridin-6-yl)-N-methyl[1,3]thiazolo[5,4-b]pyridin-2-amine]	100 to 500
Cc1cn2cc(-c3ccc4nc(C5CCNCC5)sc4c3)cc(F)c2n1 [Compound 113, 6-(8-fluoro-2-methylimidazo[1,2-a]pyridin-6-yl)-2-(piperidin-4-yl)-1,3-benzothiazole]	≤ 100
COc1cc(-c2cc(F)c3nc(N(C)C4CC(C)(C)NC(C)(C)C4)sc3c2)nn2cc(C)nc12 [Compound 200, 4-fluoro-6-(8-methoxy-2-methylimidazo[1,2-b]pyridazin-6-yl)-N-methyl-N-(2,2,6,6-tetramethylpiperidin-4-yl)-1,3-benzothiazol-2-amine]	≤ 100
Cn1cc2cc(-c3ccc4nc(C5CC(C)(C)NC(C)(C)C5)sc4c3)ccc2n1 [Compound 52, 6-(2-methyl-2H-indazol-5-yl)-2-(2,2,6,6-tetramethylpiperidin-4-yl)-1,3-benzothiazole]	1000 to 3000
CN(c1nc2cnc(-c3cc(F)c4nn(C)cc4c3)cc2s1)C1CC2CCC(C1)N2 (stereo not drawn) [Compound 205, N-[(3-exo)-8-azabicyclo[3.2.1]oct-3-yl]-6-(7-fluoro-2-methyl-2H-indazol-5-yl)-N-methyl[1,3]thiazolo[4,5-c]pyridin-2-amine]	≤ 100
Cc1cn2cc(-c3ncc4nc(N(C)C5CC6(C)CCC(C)(C5)N6)sc4n3)cc(F)c2n1 [Compound 284, N-[(1R,3s,5S)-1,5-dimethyl-8-azabicyclo[3.2.1]octan-3-yl]-5-(8-fluoro-2-methylimidazo[1,2-a]pyridin-6-yl)-N-methyl[1,3]thiazolo[5,4-d]pyrimidin-2-amine]	≤ 100
Cc1cn2cc(-c3cc4sc(N(C)[C@@H]5C[C@H]6CC[C@@H](C5)N6C)nc4cn3)cc(F)c2n1 [Compound 239, 6-(8-fluoro-2-methylimidazo[1,2-a]pyridin-6-yl)-N-methyl-N-[(3-exo)-8-methyl-8-azabicyclo[3.2.1]oct-3-yl][1,3]thiazolo[4,5-c]pyridin-2-amine]	100 to 500
CCc1cc(-c2ccc3nc(N(C)C4CC(C)(C)NC(C)(C)C4)sc3c2)cc2cn(C)nc12 [Compound 54, 6-(7-ethyl-2-methyl-2H-indazol-5-yl)-N-methyl-N-(2,2,6,6-tetramethylpiperidin-4-yl)-1,3-benzothiazol-2-amine]	100 to 500
Cc1cn2cc(-c3ccc4nc(N(C)C5CC(C)(C)NC(C)(C)C5)sc4n3)cc(F)c2n1 [Compound 177, 5-(8-fluoro-2-methylimidazo[1,2-a]pyridin-6-yl)-N-methyl-N-(2,2,6,6-tetramethylpiperidin-4-yl)[1,3]thiazolo[5,4-b]pyridin-2-amine]	≤ 100
CN1C[C@H](F)[C@H](Nc2nc3nnc(-c4ccc(-c5cn[nH]c5)cc4O)cc3s2)C1 [Compound 336, 2-(6-{[(3R,4S)-4-fluoro-1-methylpyrrolidin-3-yl]amino}[1,3]thiazolo[4,5-c]pyridazin-3-yl)-5-(1H-pyrazol-4-yl)phenol]	1000 to 3000
